System: HIV p24 antigen in latently infected CD4 T-cell cultures
Assay: Flow cytometry analysis of p24 expression in the in vitro latency model
Format: cell-based
Details: for cells expressing p24 antigen: 48 hours, live cell gate
Description: Seven days post-infection, cells infected with NL4-3-Luc virus were stimulated for 48 hours with test compounds. Cells were stained with fixable viability dye v450 (eBioscience, San Diego, CA) in phosphate buffered saline (PBS) +2% FBS for 30 minutes at 4°C. Cells were fixed with IC Fixation Buffer (eBioscience) for 20 minutes at room temperature in the dark followed by treatment with a permeabilization buffer (eBioscience) for 30 minutes at 4°C. […] The cells were analyzed on a LSR Fortessa (BD Biosciences, San Jose, CA) and collected data were processed using a FlowJo Analysis Software (TreeStar, Ashland, OR).

Compound: C/C=C1\NC(=O)[C@H]2CSSCC/C=C/[C@H](CC(=O)N[C@H](C(C)C)C(=O)N2)OC(=O)[C@H](C(C)C)NC1=O [RMD, romidepsin]
- cells expressing p24 antigen (5 nM RMD): 3.3%
- cells expressing p24 antigen (80 nM RMD): 5.5%
- time course of p24 expression (24 to 72 hours, 40 nM RMD or anti-CD3/CD28 antibodies, in presence of antiretrovirals): continued to increase for 72 hours
